Data reported in US6469063B1, “Inhibition of inflammation via inhibition of COX-2 gene transcription” (City of Hope, priority 1999, dated 2002).
Several values for one entry are separate records, joined by “and”; a condition that tells them apart may be missing. Identical values can stand only once. Entries after “also recorded” stand apart in the source; their conditions may differ.

Legend:
[1] = tested on: COX-2 protein; assay: Western immunoblot of COX-2 protein expression in RIN m5F cells; type: cell-based, rat; details: 12-HETE 1-10 nM, 24 hours; for increase in COX-2 protein: IL-1β 0.3 ng/ml
Procedure: (§1) RIN m5F cells were cultured to near confluence in RPMi-1640 medium (Life Technologies, Inc., Grand Island, N.Y.) plus 10% FCS plus 1% HEPES and penicillin/streptomycin. Prior to addition of IL-1β the cells were depleted in RPMI-1640 medium plus 0.2% BSA for 24 hours. The cells were gently washed in PBS and depletion medium was added back. At this time CDC (Biomol Research Lab, Inc., Plymouth Meeting, PA) (1-10 μM) was added in certain experiments 60 minutes prior to IL-1β addition. 12-HETE (1-100 nM) and 15-HETE (1-100 nM) (Biomol Research Lab, Inc., Plymouth Meeting, Pa.) were added to certain experiments in 0.1% ethanol. The cells were cultured for an additional 24 hours at which time medium was collected for PGE2 assay. For mRNA experiments, total RNA was extracted from RIN m5F cells 3 hours after the addition of IL-1 β, 12-HETE, or 15-HETE. 12HETE and 15-HETE were stored at −70 C. in the dark and added to cell culture dishes in the dark. Control experiments included the addition of 0.1% ethanol alone to RIN m5F cell cultures.
This Example investigates the mechanism(s) of this resistance. RIN m5F cells, cultured as set forth in Example 1, were stimulated with IL-1β and 12-HETE and total protein extracts were used for Western immunoblotting with an anti-COX-2 antibody.
The RIN m5F cells (−300 per blot) were lysed in a 1% Triton-0.1% SDS buffer in normal saline (pH 7.4) with 10 mM HEPES plus 1 mM EDTA and standard protease inhibitors. Cell lysates were centrifuged at 14,000×9 for 10 minutes and a modified BCA protein assay was performed. Protein aliquots (50 μg per sample) were treated with Laemmeli sample buffer and then heated to 100° C. for 5 minutes. Proteins were separated on 10% SDS-PAGE and transferred to polyvinylidene difluoride membranes (Immobilon-P) in 10 mM CAPS buffer, 10% methanol at pH 11. The immunoblots were blocked overnight in 5% nonfat dried milk in Tris buffer containing 0.1% Tween-20. […]

[2] = tested on: PGE2 production (COX-2 activity); assay: PGE2 production in RIN m5F cells (RIA of conditioned medium); type: cell-based, rat; details: for PGE2 production in conditioned medium: 24 hours after addition of agent
Procedure: as §1
In addition, PGE2 production was measured under the same conditions, but over a 24 hour period. COX-2 activity was determined by measuring the accumulation of PGE2 in the conditioned media. Cells were cultured in 24 well plates for 24 hours and subject to the experimental conditions described above. PGE2 was measured in conditioned medium using a commercial RIA kit. Statistical analysis of PGE2 levels was performed using the Student's t-test with GraphPad Prism™ software (GraphPad Software, Inc, San Diego, Calif.).

[3] = tested on: COX-1 mRNA; assay: Semi-quantitative RT-PCR of COX-1 gene expression in RIN m5F cells; type: cell-based, rat; details: same experiments as COX-2 mRNA
Procedure: as §1
(§2) RIN m5F cells were cultured as set forth in Example 1, in the presence or absence of IL-1β (0.3 ng/ml), 12-S-HETE (1-100 nM), or 15-S-HETE (1-100 nM) for […]. Total RNA was extracted and semiquantitative RT-PCR was performed using COX-2 specific primers.
Total RNA was extracted from RIN m5F cells with RNA STAT-60 (Tel-Test, Inc., Friendswood, Tex.). RNA (1 μg) was diluted in 12.5 μl DEPC-H20 and reverse transcribed with the 1st-Strand™ cDNA Synthesis Kit (CLONTECH laboratories, Inc., Palo Alto, Calif.), using oligo dT primers, recombinant RNase inhibitor, and MMLV reverse transcriptase to generate template cDNA for PCR amplification. Each PCR reaction was done on RNA from one 100 mm culture dish for the stated experimental conditions. Twenty picomoles of each primer (shown below) was mixed with 1 unit of Taq gold polymerase (Perkin Elmer, Inc.) in 50 μl final volume. […]
PCR products were analyzed by electrophoresis with 1.8% agarose gel. […]

[4] = tested on: COX-2 mRNA; assay: Semi-quantitative RT-PCR of COX-2 gene expression in RIN m5F cells; type: cell-based, rat; details: IL-1β 0.3 ng/ml, HETEs 1-100 nM
Procedure: as §1, §2
Total RNA was extracted from RIN m5F cells with RNA STAT-60 (Tel-Test, Inc., Friendswood, Tex.). RNA (1 μg) was diluted in 12.5 μl DEPC-H20 and reverse transcribed with the 1st-Strand™ cDNA Synthesis Kit (CLONTECH laboratories, Inc., Palo Alto, Calif.), using oligo dT primers, recombinant RNase inhibitor, and MMLV reverse transcriptase to generate template cDNA for PCR amplification. Each PCR reaction was done on RNA from one 100 mm culture dish for the stated experimental conditions. Twenty picomoles of each primer (shown below) was mixed with 1 unit of Taq gold polymerase (Perkin Elmer, Inc.) in 50 μl final volume. Samples were amplified with an initial 45 second denaturation step at 94° C. followed by 25 cycles of 45 seconds at 60° C., and 25 cycles of 2 minutes at 72° C.. The last cycle was extended for an additional 7 minutes at 72° C. PCR cycling was done with a Gene Amp PCR System 2400 (Perkin Elmer/Cetus Corp., Norwalk, Conn.). DNA primers were synthesized in the DNA/RNA Core Chemistry Laboratory at City of Hope National Medical Center. The sequences of the primers are shown below.
PCR products were analyzed by electrophoresis with 1.8% agarose gel. The DNA was transferred to nylon membranes and hybridized sequentially to ^32P-labeled probes for COX-1, COX-2, and GAPDH using a random Primed DNA labeling kit (Boehringer Mannheim). GAPDH was used as an internal control. Hybridization and autoradiography were performed according to previously published methods.

[5] = tested on: COX-2 gene transcription; details: higher concentrations; cited from earlier work
[6] = tested on: prostaglandin synthesis; details: 10-100 mg/kg; cited from earlier work
[7] = target: 15-lipoxygenase; details: cited from earlier work
[8] = target: 12-lipoxygenase; details: cited from earlier work
[9] = tested on: COX-2 protein; assay: Western immunoblot of COX-2 protein in cultured intact porcine pancreatic islets; type: cell-based; details: 24 hours
Procedure: The RIN m5F cells (−300 per blot) were lysed in a 1% Triton-0.1% SDS buffer in normal saline (pH 7.4) with 10 mM HEPES plus 1 mM EDTA and standard protease inhibitors. Cell lysates were centrifuged at 14,000×9 for 10 minutes and a modified BCA protein assay was performed. Protein aliquots (50 μg per sample) were treated with Laemmeli sample buffer and then heated to 100° C. for 5 minutes. Proteins were separated on 10% SDS-PAGE and transferred to polyvinylidene difluoride membranes (Immobilon-P) in 10 mM CAPS buffer, 10% methanol at pH 11. The immunoblots were blocked overnight in 5% nonfat dried milk in Tris buffer containing 0.1% Tween-20. The blots were incubated for 2 hours at room temperature with anti COX-2 antibodies (Cayman Chemical Co., Ann Arbor, Mich.) diluted 1:2000 in the same Tris buffer without nonfat dried milk. The blots were washed and then incubated with horseradish peroxidase conjugated secondary antibodies at 1:2000 dilution. The protein bands were visualized with enhanced chemiluminescence reagents using X-AR film.
Next, Western immunoblots were performed on protein extracts from porcine islets treated in a similar fashion with IL-1β and lysed as set forth about for RIN m5F cells. Because of the concern that 12-HETE would not permeate the islet mass, the 12-LO inhibitor CDC (1 μM) was used instead with or without the addition of IL-1β, in order to determine the role of the 12-LO pathway on COX-2 protein expression.

[10] = target: T1, 5-lipoxygenase (Homo sapiens, UniProt P09917); details: cited from earlier work
T1 sequence (P09917 1-674): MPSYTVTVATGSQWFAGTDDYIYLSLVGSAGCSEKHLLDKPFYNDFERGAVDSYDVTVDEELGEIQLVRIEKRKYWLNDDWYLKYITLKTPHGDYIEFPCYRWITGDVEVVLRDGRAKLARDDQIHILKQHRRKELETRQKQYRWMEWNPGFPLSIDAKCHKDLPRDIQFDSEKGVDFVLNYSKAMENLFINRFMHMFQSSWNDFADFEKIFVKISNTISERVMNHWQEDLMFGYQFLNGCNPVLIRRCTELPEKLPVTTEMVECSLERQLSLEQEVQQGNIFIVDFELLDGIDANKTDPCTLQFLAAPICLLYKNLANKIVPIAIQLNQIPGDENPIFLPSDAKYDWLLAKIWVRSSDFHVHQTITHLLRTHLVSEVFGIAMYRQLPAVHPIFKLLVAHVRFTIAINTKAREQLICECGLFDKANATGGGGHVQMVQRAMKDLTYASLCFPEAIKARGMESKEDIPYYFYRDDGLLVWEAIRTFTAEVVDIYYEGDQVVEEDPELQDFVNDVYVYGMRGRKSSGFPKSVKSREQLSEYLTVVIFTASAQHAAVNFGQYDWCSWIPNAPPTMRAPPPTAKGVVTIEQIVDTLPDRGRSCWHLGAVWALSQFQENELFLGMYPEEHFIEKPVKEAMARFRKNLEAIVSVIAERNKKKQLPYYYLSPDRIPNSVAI

[11] = tested on: HIT cells; details: HIT cells treated with IL-1β for 24 hours; cited from earlier work
[12] = tested on: leukocyte influx and prostaglandin synthesis; details: oral, 3 mg/kg, over a 24 hour period; cited from earlier work
[13] = tested on: PGE2 production; assay: PGE2 production in islets from C57BL/6 and 12-LO knockout mice; type: cell-based, mouse; details: for PGE2 generated by IL-1β stimulated islets: 24 hours
Procedure: Generation of 12-LO knockout has been previously described. All animal studies were performed in accordance with guidelines set forth by the Research Animal Care Committee of City of Hope National Medical Center. Islet isolation and culturing techniques have been detailed previously. Briefly, mouse pancreas was removed, minced, and poured into a siliconized 25 ml Ehrlenmeyer flask with Type Xl collagenase solution (Sigma Chemical Co, St. Louis, Mo.). The pancreatic digest was incubated in a shaker-type water bath at 37 C. for 6-10 minutes. The digest was centrifuged, poured into a black back petri dish, and islets were picked by hand under a microscope. The islets were aliquoted into sterile 6-well plates (Sarstedt, Newton, N.C.) and cultured in RPMI 1640 medium containing 11 mM glucose and supplemented with 10% FCS and 1% HEPES. Typically, we isolate −75-100 islets per mouse. For PGE2 experiments, 100 islets per well in 300 μl RPMI medium were cultured overnight prior to additions. The following morning the medium was changed to RPMI 1640 medium plus 0.2% BSA and the islets were allowed to equilibrate for one hour. Then, IL-1β (R & D Systems, Minneapolis, Minn.) was added to the appropriate experiments. All islet experiments were run in triplicate and repeated three times for reproducibility.
Isolated islets (100 per experiment) were brought to culture and incubated overnight as described. After approximately 18 hours IL-1β was added to the medium and the islets were incubated for an additional 24 hours. PGE2 production was measured as set forth in Example 3.

CCCCC/C=C\C[C@@H](O)/C=C/C=C\C/C=C\CCCC(=O)O [12-HETE, 12-hydroxyeicosatetraenoic acid, reference compound]
COX-2 protein stimulation compared to IL-1β (0.3 ng/ml) [1]: equipotent
increase in COX-2 protein [1]: 3 fold
increase in PGE2 relative to 15-HETE ([2]; 24 hours): 10 fold
PGE2 production in conditioned medium [2]: ~1250 pg/mL
COX-1 mRNA expression / gene transcription [3]: No appreciable difference; also recorded: neither IL-1β,nor 12-HETE stimulated
increase in COX-2 mRNA expression [4]: 3 fold

CCCCC[C@H](O)/C=C/C=C\C/C=C\C/C=C\CCCC(=O)O [15-HETE, 15-hydroxyeicosatetraenoic acid, reference compound]
PGE2 production in conditioned medium [2]: ~125 pg/mL
increase in COX-2 mRNA expression [4]: 1.5 fold

O=C(/C=C/c1ccc(O)c(O)c1)OCCc1ccccc1 [CAPE, caffeic acid phenethyl ester]
concentration inhibiting COX-2 gene transcription [5]: 35 to 70 µM
prostaglandin synthesis in rat carrageenan air pouch [6]: inhibited prostaglandin synthesis in a dose-dependent fashion

N#CC(=Cc1ccc(O)c(O)c1)C(=O)OCC=Cc1ccccc1 [CDC, cinnamamyl-3,4-dihydroxy-α-cyanocinnamate]
IC50 [7]: 1890 nM
IC50 [8]: 63 nM
inhibition of IL-1β induced PGE2 production ([2]; CDC 1 μM (1-10 μM)): completely inhibited; also recorded: statistically significant decrease; also recorded: statistically significant inhibition; also recorded: dose-dependent
IL-1β induced PGE2 production in presence of CDC ([2]; CDC 1 μM added 60 minutes before IL-1β, 24 hours): 169+5 pg/ml
effect on IL-1β stimulated increase in COX-2 protein ([9]; CDC 1 μM plus IL-1β): completely inhibited; also recorded: completely eliminated this response
effect on basal COX-2 protein levels ([9]; CDC alone): did not appreciably affect
IC50 [10]: 3330 nM

CS(=O)(=O)Nc1ccc([N+](=O)[O-])cc1OC1CCCCC1 [NS-398]
glucose-stimulated insulin secretion [11]: partially restored

CS(=O)(=O)Nc1ccc(Oc2ccc(F)cc2)s1 [RWJ63556]
inhibition of leukocyte influx [12]: significant sustained inhibition
inhibition of prostaglandin synthesis [12]: significant sustained inhibition

interleukin-1β [IL-1β]
increase in COX-2 protein [1]: 2.5 fold
PGE2 production in conditioned medium [2]: ~500 pg/ml and 388+27 pg/ml
COX-1 mRNA expression / gene transcription [3]: neither IL-1β,nor 12-HETE stimulated
COX-1 mRNA expression / gene transcription ([3]; listed as IL-1 β): No appreciable difference
increase in COX-2 protein ([9]; IL-1β 0.3 ng/ml): 3 fold
PGE2 production upon stimulation with IL-1β (words) ([13]; 12-LO knockout mouse islets): fail to stimulate prostaglandin E2 production
PGE2 generated by IL-1β stimulated islets ([13]; 12-LO knockout mouse islets): 78+15 pg/ml
PGE2 production upon stimulation with IL-1β (words) ([13]; 12-LO knockout mouse islets, listed as IL-1 β): no appreciable PGE2 production
increase in PGE2 production with IL-1β stimulation ([13]; C57BL/6 mouse islets): 8 fold and 7 fold
PGE2 generated by IL-1β stimulated islets ([13]; C57BL/6 mouse islets): 5405+1012 pg/ml
increase in COX-2 mRNA expression [4]: 2 fold
increase in COX-2 mRNA expression ([4]; listed as IL-1 β): 2 fold and 1.5 fold
